Results from PubChem BioAssay AID228 (DTP/NCI, 2004).
Values joined by “and” are separate entries in the source; they are usually repeats but may differ in a detail not shown here. Identical values can stand only once. Inconclusive results are not listed.

System: BDF1 mice, Friend leukemia sc, tumor weight T/C
Assay: NCI In Vivo Anticancer Drug Screen. Data for tumor model Friend Virus Leukemia (Solid) (subcutaneous) in B6D2F1 (BDF1) mice
Conditions: endpoint: mean tumor weight, higher = larger tumour
Experimental: The antitumor activity of compounds was measured in mice bearing transplantable tumors. Survival or tumor size were measured and the results are expressed as the measurement made in the treated group (T) divided by the measurement made in the vehicle treated control group (C). The tumor model used in this assay is Friend Virus Leukemia (Solid) (subcutaneous) in B6D2F1 (BDF1) mice

[1] = dose: 1.0 mg/kg/injection, schedule: Q01DX011 (ip), vehicle: carboxymethylcellulose (CMC)
[2] = dose: 62.5 mg/kg/injection, schedule: Q01DX011 (ip), vehicle: carboxymethylcellulose (CMC)
[3] = dose: 250.0 mg/kg/injection, schedule: Q01DX011 (ip), vehicle: carboxymethylcellulose (CMC)
[4] = dose: 500.0 mg/kg/injection, schedule: Q01DX011 (ip), vehicle: carboxymethylcellulose (CMC)
[5] = dose: 25.0 mg/kg/injection, schedule: Q01DX011 (ip), vehicle: carboxymethylcellulose (CMC)
[6] = dose: 1.0 mg/kg/injection, schedule: Q01DX011 (sc), vehicle: steriod suspending solution
[7] = dose: 5.0 mg/kg/injection, schedule: Q01DX011 (ip), vehicle: carboxymethylcellulose (CMC)

## NC(Cc1c[nH]c2ccc(N(CCCl)CCCl)cc12)C(=O)O (configuration not stated)
dose: 0.75 mg/kg/injection, schedule: Q01DX011 (ip), vehicle: saline
  T/C: 37 % of control
[1]
  T/C: 120 % of control
dose: 1.5 mg/kg/injection, schedule: Q01DX011 (ip), vehicle: saline
  T/C: 47 % of control
dose: 2.5 micrograms/kg/injection, schedule: Q01DX011 (ip), vehicle: carboxymethylcellulose (CMC)
  T/C: 71 % of control
dose: 5.0 micrograms/kg/injection, schedule: Q01DX011 (ip), vehicle: carboxymethylcellulose (CMC)
  T/C: 61 % of control
dose: 11.0 micrograms/kg/injection, schedule: Q01DX011 (ip), vehicle: carboxymethylcellulose (CMC)
  T/C: 86 % of control
dose: 22.0 micrograms/kg/injection, schedule: Q01DX011 (ip), vehicle: carboxymethylcellulose (CMC)
  T/C: 90 % of control
dose: 45.0 micrograms/kg/injection, schedule: Q01DX011 (ip), vehicle: carboxymethylcellulose (CMC)
  T/C: 52 % of control
dose: 90.0 micrograms/kg/injection, schedule: Q01DX011 (ip), vehicle: carboxymethylcellulose (CMC)
  T/C: 34 % of control
dose: 180.0 micrograms/kg/injection, schedule: Q01DX011 (ip), vehicle: carboxymethylcellulose (CMC)
  T/C: 40 % of control
dose: 370.0 micrograms/kg/injection, schedule: Q01DX011 (ip), vehicle: carboxymethylcellulose (CMC)
  T/C: 39 % of control

## c1ccc2c(c1)ccc1cc3c(ccc4ccccc43)cc12
dose: 15.0 mg/kg/injection, schedule: Q01DX011 (ip), vehicle: carboxymethylcellulose (CMC)
  T/C: 90 % of control
dose: 31.0 mg/kg/injection, schedule: Q01DX011 (ip), vehicle: carboxymethylcellulose (CMC)
  T/C: 86 % of control
[2]
  T/C: 39 % of control
dose: 63.0 mg/kg/injection, schedule: Q01DX011 (ip), vehicle: carboxymethylcellulose (CMC)
  T/C: 93 % of control
[3]
  T/C: 52 % of control
[4]
  T/C: 29 % of control

## O=c1[nH]c(=O)n(C2CC(O)C(CO)O2)cc1F (configuration not stated)
dose: 16.0 mg/kg/injection, schedule: Q01DX011 (ip), vehicle: saline
  T/C: 92 % of control
[5]
  T/C: 109 % of control
dose: 32.0 mg/kg/injection, schedule: Q01DX011 (ip), vehicle: saline
  T/C: 97 % of control
dose: 60.0 mg/kg/injection, schedule: Q01DX011 (ip), vehicle: carboxymethylcellulose (CMC)
  T/C: 72 % of control and 47 % of control
dose: 84.0 mg/kg/injection, schedule: Q01DX011 (ip), vehicle: saline
  T/C: 119 % of control
dose: 100.0 mg/kg/injection, schedule: Q01DX011 (ip), vehicle: carboxymethylcellulose (CMC)
  T/C: 4 % of control and 16 % of control
dose: 120.0 mg/kg/injection, schedule: Q01DX011 (ip), vehicle: carboxymethylcellulose (CMC)
  T/C: 18 % of control
dose: 126.0 mg/kg/injection, schedule: Q01DX011 (ip), vehicle: saline
  T/C: 16 % of control and 30 % of control

## COc1cc([C@@H]2c3cc4c(cc3[C@H](O)[C@H]3COC(=O)[C@H]23)OCO4)cc(OC)c1OC
dose: 0.13 mg/kg/injection, schedule: Q01DX011 (ip), vehicle: carboxymethylcellulose (CMC)
  T/C: 86 % of control
dose: 0.55 mg/kg/injection, schedule: Q01DX011 (ip), vehicle: carboxymethylcellulose (CMC)
  T/C: 86 % of control
dose: 135.0 micrograms/kg/injection, schedule: Q01DX011 (ip), vehicle: carboxymethylcellulose (CMC)
  T/C: 83 % of control
dose: 270.0 micrograms/kg/injection, schedule: Q01DX011 (ip), vehicle: carboxymethylcellulose (CMC)
  T/C: 114 % of control
dose: 550.0 micrograms/kg/injection, schedule: Q01DX011 (ip), vehicle: carboxymethylcellulose (CMC)
  T/C: 75 % of control
dose: 1100.0 micrograms/kg/injection, schedule: Q01DX011 (ip), vehicle: carboxymethylcellulose (CMC)
  T/C: 87 % of control

## CCC(=O)O[C@H]1CC[C@H]2[C@@H]3CCC4=CC(=O)CC[C@]4(C)[C@H]3CC[C@]12C
[6]
  T/C: 84 % of control
dose: 5.0 mg/kg/injection, schedule: Q01DX011 (sc), vehicle: steriod suspending solution
  T/C: 104 % of control
dose: 10.0 mg/kg/injection, schedule: Q01DX011 (sc), vehicle: steriod suspending solution
  T/C: 96 % of control
dose: 20.0 mg/kg/injection, schedule: Q01DX011 (sc), vehicle: steriod suspending solution
  T/C: 81 % of control
dose: 40.0 mg/kg/injection, schedule: Q01DX011 (sc), vehicle: steriod suspending solution
  T/C: 89 % of control
dose: 80.0 mg/kg/injection, schedule: Q01DX011 (sc), vehicle: steriod suspending solution
  T/C: 76 % of control
dose: 125.0 mg/kg/injection, schedule: Q01DX011 (sc), vehicle: steriod suspending solution
  T/C: 199 % of control
dose: 200.0 mg/kg/injection, schedule: Q01DX011 (sc), vehicle: steriod suspending solution
  T/C: 158 % of control
dose: 250.0 mg/kg/injection, schedule: Q01DX011 (sc), vehicle: steriod suspending solution
  T/C: 207 % of control
dose: 300.0 mg/kg/injection, schedule: Q01DX011 (sc), vehicle: steriod suspending solution
  T/C: 94 % of control
dose: 400.0 mg/kg/injection, schedule: Q01DX011 (sc), vehicle: steriod suspending solution
  T/C: 185 % of control and 201 % of control
dose: 500.0 mg/kg/injection, schedule: Q01DX011 (sc), vehicle: steriod suspending solution
  T/C: 171 % of control and 191 % of control and 257 % of control

## CN(C)c1nc(N(C)C)nc(N(C)C)n1
dose: 3.75 mg/kg/injection, schedule: Q01DX011 (ip), vehicle: other
  T/C: 104 % of control
dose: 7.5 mg/kg/injection, schedule: Q01DX011 (ip), vehicle: other
  T/C: 83 % of control
dose: 15.0 mg/kg/injection, schedule: Q01DX011 (ip), vehicle: other
  T/C: 112 % of control
dose: 30.0 mg/kg/injection, schedule: Q01DX011 (ip), vehicle: other
  T/C: 84 % of control

## COc1ccc2c3c1OC1C(O)C=CC4C(C2)N(C)CCC341 (configuration not stated)
dose: 37.5 mg/kg/injection, schedule: Q01DX011 (ip), vehicle: saline
  T/C: 93 % of control
dose: 50.0 mg/kg/injection, schedule: Q01DX011 (ip), vehicle: saline
  T/C: 119 % of control
dose: 75.0 mg/kg/injection, schedule: Q01DX011 (ip), vehicle: saline
  T/C: 108 % of control

## N#C[C@@H]1C2C=CC(CC2)[C@H]1C#N
dose: 0.5 mg/kg/injection, schedule: Q01DX011 (ip), vehicle: carboxymethylcellulose (CMC)
  T/C: 97 % of control
[1]
  T/C: 71 % of control
dose: 2.0 mg/kg/injection, schedule: Q01DX011 (ip), vehicle: carboxymethylcellulose (CMC)
  T/C: 83 % of control

## S=c1nc[nH]c2nc[nH]c12
dose: 0.03 mg/kg/injection, schedule: Q01DX011 (ip), vehicle: carboxymethylcellulose (CMC)
  T/C: 55 % of control
dose: 0.05 mg/kg/injection, schedule: Q01DX011 (ip), vehicle: carboxymethylcellulose (CMC)
  T/C: 61 % of control
dose: 3.5 mg/kg/injection, schedule: Q01DX011 (ip), vehicle: carboxymethylcellulose (CMC)
  T/C: 21 % of control
[7]
  T/C: 2 % of control and 10 % of control and 12 % of control
dose: 7.0 mg/kg/injection, schedule: Q01DX011 (ip), vehicle: carboxymethylcellulose (CMC)
  T/C: 13 % of control
dose: 14.0 mg/kg/injection, schedule: Q01DX011 (ip), vehicle: carboxymethylcellulose (CMC)
  T/C: 9 % of control
dose: 42.0 mg/kg/injection, schedule: Q01DX011 (ip), vehicle: carboxymethylcellulose (CMC)
  T/C: 4 % of control and 7 % of control and 16 % of control

## CC1(C)CC(C)(c2ccccc2)c2ccccc21 (configuration not stated)
[2]
  T/C: 68 % of control
dose: 125.0 mg/kg/injection, schedule: Q01DX011 (ip), vehicle: carboxymethylcellulose (CMC)
  T/C: 70 % of control
[3]
  T/C: 67 % of control
[4]
  T/C: 25 % of control

## CC(C)Sc1nc(N)nc2nc[nH]c12
dose: 3.0 mg/kg/injection, schedule: Q01DX011 (ip), vehicle: carboxymethylcellulose (CMC)
  T/C: 97 % of control
[5]
  T/C: 14 % of control
dose: 50.0 mg/kg/injection, schedule: Q01DX011 (ip), vehicle: carboxymethylcellulose (CMC)
  T/C: 2 % of control

## C[C@H]1C[C@H]2[C@@H]3CC[C@](O)(C(=O)CO)[C@@]3(C)C[C@H](O)[C@]2(F)[C@@]2(C)C=CC(=O)C=C12
dose: 0.5 mg/kg/injection, schedule: Q01DX011 (sc), vehicle: steriod suspending solution
  T/C: 61 % of control and 63 % of control
[6]
  T/C: 76 % of control and 91 % of control
dose: 3.0 mg/kg/injection, schedule: Q01DX011 (sc), vehicle: steriod suspending solution
  T/C: 60 % of control and 74 % of control
dose: 6.0 mg/kg/injection, schedule: Q01DX011 (sc), vehicle: steriod suspending solution
  T/C: 31 % of control
dose: 7.0 mg/kg/injection, schedule: Q01DX011 (sc), vehicle: steriod suspending solution
  T/C: 47 % of control
dose: 15.0 mg/kg/injection, schedule: Q01DX011 (sc), vehicle: steriod suspending solution
  T/C: 28 % of control
dose: 30.0 mg/kg/injection, schedule: Q01DX011 (sc), vehicle: steriod suspending solution
  T/C: 17 % of control
dose: 60.0 mg/kg/injection, schedule: Q01DX011 (sc), vehicle: steriod suspending solution
  T/C: 10 % of control
dose: 120.0 mg/kg/injection, schedule: Q01DX011 (sc), vehicle: steriod suspending solution
  T/C: 5 % of control

## CCN(CC)c1ccc2cc3ccc(=[N+](CC)CC)cc-3oc2c1
[7]
  T/C: 102 % of control
